Experimental findings from US4618627A, “Catechol derivatives and pharmaceutical compositions thereof for inhibiting anaphylaxis (SRS-A)” (priority 1983, dated 1986) are described below.

The test system of assay [1] is antigen-induced histamine release. The experiment in a line: Passive peritoneal anaphylaxis (PPA) in rats: histamine release. The format is in vivo, male Wistar rats. Conditions: 100 μg/kg i.p.; for inhibition at 0.1 mg/kg: Rattus norvegicus, ip, 30 sec before antigen, histamine, DSCG value is mean of 3 rats (footnote 1). The protocol: (A) Passive peritoneal anaphylaxis (PPA) in rats The method was based on that of Orange et al^(1). […] After 4 hr, 5 ml of Tyrode solution containing 250 μg heparin and 2 mg DNP-BSA was injected i.p. Test drugs (100 μg/kg) were dissolved in 0.6 ml of saline and injected i.p. 30 sec before antigen administration. Five min. later, the rats were decapitated and the peritoneal fluid was collected by opening the peritoneal cavity into polycarbonate tubes in ice. The supernatant was separated for bioassay from the cellular residue by centrifugation at 2000 rpm for 5 min at 4° C. […] One unit of SRS-A refers to the concentration required to produce a contraction of the guinea-pig ileum equal in amplitude to that produced by 5 ng histamine base in that assay.

The test system of assay [2] is antigen-induced SRS-A release. The assay can be described thus: Passive peritoneal anaphylaxis (PPA) in rats: SRS-A release. Conditions: Rattus norvegicus, ip, 100 μg/kg i.p., 30 sec before antigen, DSCG value is mean of 3 rats (footnote 1). The format is in vivo, male Wistar rats. The protocol: (A) Passive peritoneal anaphylaxis (PPA) in rats
The method was based on that of Orange et al^(1). Briefly, male Wistar rats weighing 275 to 325 g (Shizuoka Exp. Animal Agric, Coop. Assoc.) were sensitized by intraperitoneally (i.p.) injecting 5 ml of diluted (40-fold) mouse anti-DNP reaginic serum (PCA titer: 1280). After 4 hr, 5 ml of Tyrode solution containing 250 μg heparin and 2 mg DNP-BSA was injected i.p. Test drugs (100 μg/kg) were dissolved in 0.6 ml of saline and injected i.p. 30 sec before antigen administration. Five min. later, the rats were decapitated and the peritoneal fluid was collected by opening the peritoneal cavity into polycarbonate tubes in ice. The supernatant was separated for bioassay from the cellular residue by centrifugation at 2000 rpm for 5 min at 4° C.
Histamine and SRS-A were assayed using isolated guinea-pig ileum in the presence of 10^-7 M FPL-55712 and 10^-6 M mepyramine, respectively, in addition to 5×10^-7 M atropine. One unit of SRS-A refers to the concentration required to produce a contraction of the guinea-pig ileum equal in amplitude to that produced by 5 ng histamine base in that assay.

A further assay concerns the target T1, 5-lipoxygenase (Mus musculus, UniProt P48999).
T1 construct: endogenous in cells
T1 sequence (P48999 1-674): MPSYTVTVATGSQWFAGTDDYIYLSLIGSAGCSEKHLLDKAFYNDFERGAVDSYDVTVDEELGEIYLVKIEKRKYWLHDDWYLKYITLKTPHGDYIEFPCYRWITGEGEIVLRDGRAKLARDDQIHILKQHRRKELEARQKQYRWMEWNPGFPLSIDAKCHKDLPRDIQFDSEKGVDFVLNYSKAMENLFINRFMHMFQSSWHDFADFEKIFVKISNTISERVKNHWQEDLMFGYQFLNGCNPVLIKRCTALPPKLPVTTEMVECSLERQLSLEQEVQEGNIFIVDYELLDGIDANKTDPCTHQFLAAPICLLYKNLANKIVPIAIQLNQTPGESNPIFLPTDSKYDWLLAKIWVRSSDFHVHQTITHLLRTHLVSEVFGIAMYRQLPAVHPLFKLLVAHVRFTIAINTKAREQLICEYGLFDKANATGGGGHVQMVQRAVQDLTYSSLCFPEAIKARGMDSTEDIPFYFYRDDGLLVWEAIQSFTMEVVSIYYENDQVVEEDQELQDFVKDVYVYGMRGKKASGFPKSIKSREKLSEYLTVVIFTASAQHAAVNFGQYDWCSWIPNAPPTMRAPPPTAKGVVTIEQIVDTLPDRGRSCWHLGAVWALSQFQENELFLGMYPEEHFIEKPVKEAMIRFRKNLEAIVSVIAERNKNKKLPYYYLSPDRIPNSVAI
The experiment in a line: Assay of 5-lipoxygenase. The format is biochemical. The note with it: enzyme fraction from mastocytoma P-815 cells, [1-14C]-arachidonic acid, 37° C., 5 min; Probit method; read-out: IC 50 5-Lipoxygenase. The protocol:
(§1) (B) Assay of 5-lipoxygenase and cyclooygenase
(§2) The method was based on that of Koshihara et al^(1). In the case of assay of 5-lipoxygenase activity, an enzyme fraction from mastocytoma P-815 cells (10^7 cells/ml) was incubated with 0.2 μCi [1-^14 C]-arachidonic acid (56.9 Ci/mol), 0.8 mM CaCl2, 2×10^-5 M indoemthacin and various concentrations of test drugs at 37° C. for 5 min. In the case of assay of cyclooxygenase activity, CaCl2 and indomethacin were omitted from the above incubation mixture and incubation was performed at 37° C. for 7 min. Both reactions were terminated by adjusting the pH of the mixture to 3.0 with HCl. After extraction of the products with 8 volume ethyl acetate, each extract was concentrated and applied to TLC plate. For the separation of HETEs and prostaglandins, thin-layer chromatography was carried out using the solvent system: petroleum ether/diethyl ether/acetic acid (50:50:1) and ethyl acetate/2,2,4-trimethylpentane/acetic acid/water (11:5:2:10, upper phase), respectively. Radioactive spots were detected by autoradiography and scraped off and counted using a liquid scintillation spectrometer. The activities of 5-lipoxygenase and cyclooxygenase were expressed as the sum of radioactivities due to 5-HETE and 5,12-diHETE and due to PGD2, PGE2 and PGF2α, respectively. The IC 50 values were calculated by Probit method.

The next assay concerns the target cyclooxygenase. The assay can be described thus: Assay of cyclooxygenase. Type of assay: biochemical. Conditions: enzyme fraction from mastocytoma P-815 cells, [1-14C]-arachidonic acid, 37° C., 7 min, Probit method; for IC50: read-out: IC 50 Cyclooxygenase. The protocol:
as §1, §2

`CCCCCC(C)C(=O)C=Cc1ccc(O)c(O)c1` (centres unmarked) [Example 29, 1-(3,4-dihydroxyphenyl)-4-methyl-1-nonen-3-one]: the inhibition at 0.1 mg/kg in assay [1] was -32.4%; in assay [2] it was 38.2%.
Consider `CCCCCCC(=O)CCc1ccc(O)c(O)c1` [Example 3, 1-(3,4-dihydroxyphenyl)-3-nonanone], for which the inhibition at 0.1 mg/kg in assay [1] turned out to be 22.6%; in assay [2], 53.9%.
For `OCCCCCCCCCc1ccc(O)c(O)c1` [Example 25A, 9-(3,4-Dihydroxyphenyl)-1-nonanol], the results for the inhibition at 0.1 mg/kg in assay [1] and in assay [2] were -8.3% and 43.9%, respectively.
With `OCCCCCCCCCCCc1ccc(O)c(O)c1` [Example 23, 11-(3,4-dihydroxyphenyl)-1-undecanol], the inhibition at 0.1 mg/kg in assay [1] was found to be 10.7%; in assay [2] it was 69.6%. In addition, the figures for the IC50 at 5-lipoxygenase and on cyclooxygenase were 54 nM and more than 10000 nM, respectively.
Consider `CCCCCCC(O)CCc1ccc(O)c(O)c1` (centres unmarked) [Example 2, 1-(3,4-dihydroxyphenyl)-3-nonanol], for which the inhibition at 0.1 mg/kg in assay [1] was determined as 5.2%; in assay [2], 57.3%.
As to `CCCCCCCCC(O)CCc1ccc(O)c(O)c1` (centres unmarked) [Example 9, 1-(3,4-Dihydroxyphenyl)-3-undecanol], the values for the inhibition at 0.1 mg/kg in assay [1] and in assay [2] were 21.6% and 53.6%, respectively. Further, the IC50 on 5-lipoxygenase is 100 nM; on cyclooxygenase, more than 10000 nM.
With `CCCCCC(C)C(O)CCc1ccc(O)c(O)c1` (centres unmarked) [Example 11, 1-(3,4-Dihydroxyphenyl)-4-methyl-3-nonanol], the inhibition at 0.1 mg/kg was found to be 17.6% in assay [1] and 66.6% in assay [2].
In the case of `CCCCCCC(O)CCCc1ccc(O)c(O)c1` (centres unmarked) [Example 15, 1-(3,4-dihydroxyphenyl)-4-decanol], the figures for the inhibition at 0.1 mg/kg in assay [1] and in assay [2] were 18.4% and 46.2%, respectively.
For `CCCCC(C)C(O)CCc1ccc(O)c(O)c1` (centres unmarked) [Example 1, 1-(3,4-dihydroxyphenyl)-4-methyl-3-octanol], the inhibition at 0.1 mg/kg in assay [1] is 37.8%; in assay [2], 76.6%. In addition, the IC50 at 5-lipoxygenase is 300 nM. Besides, the “IC 50 Cyclooxygenase” value against cyclooxygenase was “En- hanced”.
In the case of `O=C(O)c1cc(=O)c2c(OCC(O)COc3cccc4oc(C(=O)O)cc(=O)c34)cccc2o1` [DSCG, disodium cromoglycate, reference compound], the inhibition at 0.1 mg/kg turned out to be 75.2% in assay [1] and 46.6% in assay [2]. For the same molecule, the “inhibition of histamine release (selectivity versus SRS-A)” value in assay [1] (rat PPA) is recorded as “inhibited the histamine release in a relatively selective manner”.
`CC(=O)CCCCCCCc1ccc(O)c(O)c1` [Example 20, 9-(3,4-dihydroxyphenyl)-2-nonanone]: the inhibition at 0.1 mg/kg in assay [1] worked out at 17.9%; in assay [2] it was 62.8%. On 5-lipoxygenase, the IC50 is 230 nM.
For `CCCCCCCCCC(=O)Cc1ccc(O)c(O)c1` [Example 14, 1-(3,4-dihydroxyphenyl)-2-undecanone], the results for the inhibition at 0.1 mg/kg in assay [1] and in assay [2] were 32.7% and 58.9%, respectively.
